Test results reported in patent publication US11325938B2, “CD73 inhibitors” (ORIC Pharmaceuticals, Inc., priority 2018, dated 2022).
pIC50: −log10 of the molar value.

molecular target: CD73 (Homo sapiens (Human), UniProt P21589); assay: Biochemical assay: inhibition of CD73 activity (AMP hydrolysis, Malachite Green readout); conditions: CD73 0.3208 nM, AMP 15 μM, 25 mM Tris-HCl pH 7.4, RT, absorbance 620 nm
Outline: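 Human CD73 (320 pM final) preincubated 15 min at RT with compounds (10-point ½-log titration from 100 μM, duplicates) in 25 mM Tris-HCl pH 7.4, 5 mM MgCl2, 0.01% Brij-35, 0.01% BSA. 15 μM AMP added, 10 min at RT; released phosphate read by Malachite Green absorbance; IC50 determined.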

Sequence of CD73 (P21589 27-574): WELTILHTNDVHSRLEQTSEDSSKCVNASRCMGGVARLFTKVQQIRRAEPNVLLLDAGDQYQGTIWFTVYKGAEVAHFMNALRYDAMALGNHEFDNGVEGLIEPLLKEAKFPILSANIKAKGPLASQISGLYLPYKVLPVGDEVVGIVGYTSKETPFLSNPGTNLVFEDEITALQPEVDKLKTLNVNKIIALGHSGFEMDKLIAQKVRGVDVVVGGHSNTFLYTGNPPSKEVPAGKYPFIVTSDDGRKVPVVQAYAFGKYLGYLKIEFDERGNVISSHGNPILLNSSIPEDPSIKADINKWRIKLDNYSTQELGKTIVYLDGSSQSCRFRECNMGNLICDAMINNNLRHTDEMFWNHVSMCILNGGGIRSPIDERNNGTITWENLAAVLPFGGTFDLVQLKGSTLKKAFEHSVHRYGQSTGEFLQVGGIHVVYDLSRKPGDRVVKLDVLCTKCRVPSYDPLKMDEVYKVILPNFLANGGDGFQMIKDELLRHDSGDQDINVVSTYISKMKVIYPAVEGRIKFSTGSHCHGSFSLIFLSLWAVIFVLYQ

Row | SMILES | pIC50
1 | O=P(O)(O)[C@@](CO)(Cc1nn[nH]n1)OC[C@H]1O[C@@H](n2ncc3c(NC4CCCC4)nc(CO)nc32)[C@H](O)[C@@H]1O (racemic) [Example 218, rac-((R)-2-(((2R,3S,4R,5R)-5-(4-(cyclopentylamino)-6-(hydroxymethyl)-1H-pyrazolo[3,4-d]pyrimidin-1-yl)-3,4-dihydroxytetrahydrofuran-2-yl)methoxy)-1-hydroxy-3-(2H-tetrazol-5-yl)propan-2-yl)phosphonic acid] | ≥ 7.00
2 | C[C@@H](Nc1nc(Cl)nc2c1cnn2[C@@H]1O[C@H](COC(CO)(CO)P(=O)(O)O)[C@@H](O)[C@H]1O)c1ccc(F)cc1 (racemic) [Example 222, rac-(2-(((2R,3S,4R,5R)-5-(6-chloro-4-(((R)-1-(4-fluorophenyl)ethyl)amino)-1H-pyrazolo[3,4-d]pyrimidin-1-yl)-3,4-dihydroxytetrahydrofuran-2-yl)methoxy)-1,3-dihydroxypropan-2-yl)phosphonic acid] | ≥ 7.00
3 | CC(C)(O)C#Cc1nc(NC2CCCC2)c2cnn([C@@H]3O[C@H](COC(CO)(CO)P(=O)(O)O)[C@@H](O)[C@H]3O)c2n1 (racemic) [Example 224, rac-(2-(((2R,3S,4R,5R)-5-(4-(cyclopentylamino)-6-(3-hydroxy-3-methylbut-1-yn-1-yl)-1H-pyrazolo[3,4-d]pyrimidin-1-yl)-3,4-dihydroxytetrahydrofuran-2-yl)methoxy)-1,3-dihydroxypropan-2-yl)phosphonic acid] | ≥ 7.00
4 | O=C(O)c1ccccc1COCC(CO)(OC[C@H]1O[C@@H](n2ncc3c(NC4CCCC4)nc(Cl)nc32)[C@H](O)[C@@H]1O)P(=O)(O)O (mixture of isomers) [Example 227, rac-2-((2-(((2R,3S,4R,5R)-5-(6-chloro-4-(cyclopentylamino)-1H-pyrazolo[3,4-d]pyrimidin-1-yl)-3,4-dihydroxytetrahydrofuran-2-yl)methoxy)-3-hydroxy-2-phosphonopropoxy)methyl)benzoic acid] | ≥ 7.00
5 | C[C@@H]1CCC[C@@H]1Nc1nc(Cl)nc2c1cnn2[C@@H]1O[C@H](COC(CO)(CO)P(=O)(O)O)[C@@H](O)[C@H]1O (racemic) [Example 228, rac-(2-(((2R,3S,4R,5R)-5-(6-chloro-4-(((1S,2R)-2-methylcyclopentyl)amino)-1H-pyrazolo[3,4-d]pyrimidin-1-yl)-3,4-dihydroxytetrahydrofuran-2-yl)methoxy)-1,3-dihydroxypropan-2-yl)phosphonic acid] | ≥ 7.00
6 | O=P(O)(O)[C@@H](CO)OC[C@H]1O[C@@H](n2ncc3c(NC4CCCC4)nc(Cl)nc32)[C@H](O)[C@@H]1O (single isomer, unassigned) [Example 3] | ≥ 7.00
7 | O=P(O)(O)C(CO)OC[C@H]1O[C@@H](n2ncc3c(NC4CCCC4)nc(Cl)nc32)[C@H](O)[C@@H]1O (stereo partly drawn) [Example 13, (1-(((2R,3S,4R,5R)-5-(6-chloro-4-(cyclopentylamino)-1H-pyrazolo[3,4-d]pyrimidin-1-yl)-3,4-dihydroxytetrahydrofuran-2-yl)methxoy)-2-hydroxyethyl)phosphonic acid] | ≥ 7.00
8 | O=P(O)(O)COC[C@H]1O[C@@H](n2nnc3c(NC4CCCC4)cc(Cl)nc32)[C@H](O)[C@@H]1O [Example 17, ((((2R,3S,4R,5R)-5-(5-Chloro-7-(cyclopentylamino)-3H-[1,2,3]triazolo[4,5-b]pyridin-3-yl)-3,4-dihydroxytetrahydrofuran-2-yl)methoxy)methyl)phosphonic acid] | 6.00 to 7.00
9 | O=P(O)(O)COC[C@H]1O[C@@H](n2nnc3c(NCC4CC4)cc(Cl)nc32)[C@H](O)[C@@H]1O [Example 21, ((((2R,3S,4R,5R)-5-(5-chloro-7-((cyclopropylmethyl)amino)-3H-[1,2,3]triazolo[4,5-b]pyridin-3-yl)-3,4-dihydroxytetrahydrofuran-2-yl)methoxy)methyl)phosphonic acid] | ≥ 7.00

Now from value to molecule:

Row | pIC50 | SMILES
10 | ≥ 7.00 | O=P(O)(O)C(CO)(Cc1nc[nH]n1)OC[C@H]1O[C@@H](n2ncc3c(NC4CCCC4)nc(Cl)nc32)[C@H](O)[C@@H]1O (mixture of isomers) [Example 219, rac-(2-(((2R,3S,4R,5R)-5-(6-chloro-4-(cyclopentylamino)-1H-pyrazolo[3,4-d]pyrimidin-1-yl)-3,4-dihydroxytetrahydrofuran-2-yl)methoxy)-1-hydroxy-3-(1H-1,2,4-triazol-3-yl)propan-2-yl)phosphonic acid]
11 | ≥ 7.00 | CCOC(=O)C(OC[C@H]1O[C@@H](n2ncc3c(NC4CCCC4)nc(Cl)nc32)[C@H](O)[C@@H]1O)P(=O)(O)O (stereo partly drawn) [Example 1, (1-(((2R,3S,4R,5R)-5-(6-Chloro-4-(cyclopentylamino)-1H-pyrazolo[3,4-d]pyrimidin-1-yl)-3,4-dihydroxytetrahydrofuran-2-yl)methoxy)-2-ethoxy-2-oxoethyl)phosphonic acid]
12 | 6.00 to 7.00 | N#CC(OC[C@H]1O[C@@H](n2ncc3c(NC4CCCC4)nc(Cl)nc32)[C@H](O)[C@@H]1O)P(=O)(O)O (stereo partly drawn) [Example 2, ((((2R,3S,4R,5R)-5-(6-Chloro-4-(cyclopentylamino)-1H-pyrazolo[3,4-d]pyrimidin-1-yl)-3,4-dihydroxytetrahydrofuran-2-yl)methoxy)(cyano)methyl)phosphonic acid]
13 | ≥ 7.00 | CC(OC[C@H]1O[C@@H](n2ncc3c(NC4CCCC4)nc(Cl)nc32)[C@H](O)[C@@H]1O)P(=O)(O)O (stereo partly drawn) [Example 5, (1-(((2R,3S,4R,5R)-5-(6-Chloro-4-(cyclopentylamino)-1H-pyrazolo[3,4-d]pyrimidin-1-yl)-3,4-dihydroxytetrahydrofuran-2-yl)methoxy)ethyl)phosphonic acid]
14 | ≥ 7.00 | C[C@@H](P(=O)(O)O)S(=O)(=O)C[C@H]1O[C@@H](n2ncc3c(NC4CCCC4)nc(Cl)nc32)[C@H](O)[C@@H]1O [Example 6, ((S)-1-((((2S,3S,4R,5R)-5-(6-Chloro-4-(cyclopentylamino)-1H-pyrazolo[3,4-d]pyrimidin-1-yl)-3,4-dihydroxytetrahydrofuran-2-yl)methyl)sulfonyl)ethyl)phosphonic acid]
15 | ≥ 7.00 | C[C@H](P(=O)(O)O)S(=O)(=O)C[C@H]1O[C@@H](n2ncc3c(NC4CCCC4)nc(Cl)nc32)[C@H](O)[C@@H]1O [Example 7, ((R)-1-((((2S,3S,4R,5R)-5-(6-Chloro-4-(cyclopentylamino)-1H-pyrazolo[3,4-d]pyrimidin-1-yl)-3,4-dihydroxytetrahydrofuran-2-yl)methyl)sulfonyl)ethyl)phosphonic acid]
16 | ≥ 7.00 | CC(CO)(P(=O)(O)O)S(=O)(=O)C[C@H]1O[C@@H](n2ncc3c(NC4CCCC4)nc(Cl)nc32)[C@H](O)[C@@H]1O (stereo partly drawn) [Example 8, (2-((((2S,3S,4R,5R)-5-(6-Chloro-4-(cyclopentylamino)-1H-pyrazolo[3,4-d]pyrimidin-1-yl)-3,4-dihydroxytetrahydrofuran-2-yl)methyl)sulfonyl)-1-hydroxypropan-2-yl)phosphonic acid]
17 | ≥ 7.00 | O=P(O)(O)[C@@H](Cc1ccccc1)S(=O)(=O)C[C@H]1O[C@@H](n2ncc3c(NC4CCCC4)nc(Cl)nc32)[C@H](O)[C@@H]1O [Example 10, ((R)-1-((((2S,3S,4R,5R)-5-(6-chloro-4-(cyclopentylamino)-1H-pyrazolo[3,4-d]pyrimidin-1-yl)-3,4-dihydroxytetrahydrofuran-2-yl)methyl)sulfonyl)-2-phenylethyl)phosphonic acid]
18 | ≥ 7.00 | C[C@H](O)[C@@H](OC[C@H]1O[C@@H](n2ncc3c(NC4CCCC4)nc(Cl)nc32)[C@H](O)[C@@H]1O)P(=O)(O)O [Example 11, ((1S,2S)-1-(((2R,3S,4R,5R)-5-(6-chloro-4-(cyclopentylamino)-1H-pyrazolo[3,4-d]pyrimidin-1-yl)-3,4-dihydroxytetrahydrofuran-2-yl)methoxy)-2-hydroxypropyl)phosphonic acid]
19 | ≥ 7.00 | C[C@H](O)[C@H](OC[C@H]1O[C@@H](n2ncc3c(NC4CCCC4)nc(Cl)nc32)[C@H](O)[C@@H]1O)P(=O)(O)O [Example 12, ((1R,2S)-1-(((2R,3S,4R,5R)-5-(6-chloro-4-(cyclopentylamino)-1H-pyrazolo[3,4-d]pyrimidin-1-yl)-3,4-dihydroxytetrahydrofuran-2-yl)methoxy)-2-hydroxypropyl)phosphonic acid]
20 | ≥ 7.00 | CCC(OC[C@H]1O[C@@H](n2ncc3c(NC4CCCC4)nc(Cl)nc32)[C@H](O)[C@@H]1O)P(=O)(O)O (stereo partly drawn) [Example 14, (1-(((2R,3S,4R,5R)-5-(6-chloro-4-(cyclopentylamino)-1H-pyrazolo[3,4-d]pyrimidin-1-yl)-3,4-dihydroxytetrahydrofuran-2-yl)methoxy)propyl)phosphonic acid]
21 | ≥ 7.00 | CC(CO)(OC[C@H]1O[C@@H](n2ncc3c(NC4CCCC4)nc(Cl)nc32)[C@H](O)[C@@H]1O)P(=O)(O)O (stereo partly drawn) [Example 15, (2-(((2R,3S,4R,5R)-5-(6-Chloro-4-(cyclopentylamino)-1H-pyrazolo[3,4-d]pyrimidin-1-yl)-3,4-dihydroxytetrahydrofuran-2-yl)methoxy)-1-hydroxypropan-2-yl)phosphonic acid]
22 | ≥ 7.00 | O=P(O)(O)CS(=O)(=O)C[C@H]1O[C@@H](n2nnc3c(NC4CCCC4)cc(Cl)nc32)[C@H](O)[C@@H]1O [Example 16, (((((2S,3S,4R,5R)-5-(5-Chloro-7-(cyclopentylamino)-3H-[1,2,3]triazolo[4,5-b]pyridin-3-yl)-3,4-dihydroxytetrahydrofuran-2-yl)methyl)sulfonyl)methyl)phosphonic acid]
23 | 6.00 to 7.00 | O=P(O)(O)COC[C@H]1O[C@@H](n2nnc3c(NC4CCCC4)nc(Cl)cc32)[C@H](O)[C@@H]1O [Example 20, ((((2R,3S,4R,5R)-5-(6-chloro-4-(cyclopentylamino)-1H-[1,2,3]triazolo[4,5-c]pyridin-1-yl)-3,4-dihydroxytetrahydrofuran-2-yl)methoxy)methyl)phosphonic acid]
